The text below walks through data of patent US12180473B2, “Chimeric RNA-driven genomic rearrangement in mammalian cells” (priority 2018, dated 2024).

Data set [1] deals with TMPRSS2-ERG fusion.
Method: LNCaP cells were cultured in this special medium for 24 hrs prior to plasmid transfection.
Transfection was performed using Turbofect transfection reagent (Thermo Scientific, #R0531) according to manufacturer's protocol. Briefly, 1 μg of a particular plasmid was first diluted in 100 μl of the serum-free DMEM followed by immediate mixing by pipetting. 4 μl of the transfection reagent was then added to the diluted DNA followed by mixing and incubation for 20 min. The DNA/transfection reagent mixture was then added drop wise to a well containing LNCaP cells in 1 ml medium.
For treating cultured cells, concentrated DHT stock was diluted as 10× working solutions (for example, for 0.9 μM final concentration, 10× is prepared as 9.0 μM) with the appropriate complete culture medium and used immediately. […] Six hrs post transfection, 111 μl of fresh 10× DHT working solutions was added to each well of 12-wells plate containing 1 ml medium and transfected cells.
Briefly, cells were suspended in 200 μl of PBS buffer and were then lysed with 400 μl of lysis buffer. The sample was then passed through the filter assembly resulting in the binding of the nucleic acids to the filter. The filter containing nucleic acids was then incubated with DNase I dissolved in DNase incubation buffer to degrade genomic and plasmid DNAs. The column was then rinsed with wash buffer and total RNA then eluted in a new tube for further analysis.
After the addition of dNTPs, the mixture was denatured at 65° C. for 5 minutes. This was followed by the addition of a master-mix containing 1× superscript buffer, 10 mM DTT, 5 mM Magnesium chloride, RNaseOUT and Superscript III reverse transcriptase. Reactions were carried out at 50° C. for 50 minutes and then terminated by incubation at 85° C. for 5 minutes. cDNA was then treated with RNase-H for 20 minutes at 37° C. to degrade RNA in DNA/RNA hybrid. 1 μl of cDNA was used as template for each subsequent PCR reaction.
The Denaturation, Annealing and Extension steps were performed 32 cycles for induced fusion RNA and 27 cycles for input RNA.
Another data set relates to ERG mRNA. In words: RT-PCR of endogenous ERG mRNA in LNCaP cells.
The next data set relates to TMPRSS2 mRNA. Particulars: LNCaP cells.
In data set [2] the test system is TMPRSS2-ERG fusion. The source holds these as a separate data set.
A further data set relates to AZI1 RNA. As to conditions: LNCaP cells.

Consider `C[C@]12CCC(=O)C[C@@H]1CC[C@@H]1[C@@H]2CC[C@]2(C)[C@@H](O)CC[C@@H]12` [DHT, 5α-Androstan-17β-ol-3-one], for which, in the data set with TMPRSS2-ERG fusion [1], the “DHT concentration at which fusion induction is detectable” value was about 0.6 µM and the “DHT concentration at which fusion induction reaches its maximum” value amounted to 1.5 µM. The “endogenous ERG mRNA (three-rounds of nested RT-PCR)” value in the data set on ERG mRNA (presence or absence of DHT or antisense-5) is “not detected”. Moreover, in the data set with ERG mRNA (wide range of DHT, presence or absence of antisense-5), the “endogenous ERG mRNA (RT-PCR)” value was “not detected”. The “TMPRSS2 mRNA expression” value in the data set with TMPRSS2 mRNA is “upregulated”. Also, the “TMPRSS2-ERG fusion transcript in PNT1A cells with DHT alone” value in the data set on TMPRSS2-ERG fusion [2] is reported as “no detectable fusion transcripts”. Also, the “endogenous AZI1 RNA expression” value with AZI1 RNA is on record as “upregulated”.
